# Test results from US20120122991A1, “METHOD FOR TREATING CANCER BY INCREASING AMP-ACTIVATED KINASE ACTIVITY” (Dana-Farber Cancer Institute, Inc., priority 2003, published 2012).
# Key:
# tuberin = experiment: Tuberin mobility shift on SDS-PAGE in transfected HeLa cells; type: cell-based, human
# From the text: FIG. 7A: In vitro kinase assay using FLAG-tagged tuberin as a substrate for LKB1-activated AMPK. Purified E. coli produced recombinant AMPK was activated by an in vitro kinase assay with wild-type LKB1, kinase-dead LKB1, or untransfected control immunoprecipitates then isolated and assayed for its ability to phosphorylate tuberin in vitro. FIG. 7B: Comparison of recombinant Akt-mediated tuberin phosphorylation in vitro to recombinant AMPK phosphorylation in vitro. Note that only AMPK-mediated phosphorylation induces a significant mobility shift in tuberin on SDS-PAGE. C: HeLa cells were co-transfected with FLAG-tagged tuberin, and empty vector or wild-type LKB1 and treated with 2 mM AICAR where indicated. Total cell lysates were then immunoblotted with anti-FLAG antisera to detect the introduced tuberin. Note the significant mobility shift induced by AICAR treatment of LKB1-expressing cells. […] FIG. 7D: HeLa cells were transfected with HA-tagged S6K1 and FLAG-tagged wild-type LKB1 along with empty vector, or dominant negative AMPK alpha1 (GST-tagged) or dominant negative AMPK alpha2 (myc tagged). Cells were treated with 2 mM AICAR for 2 h where indicated. HA-immunoprecipitates were immunoblotted with phospho-Thr389 S6K1 antisera to detect activated S6K1 and reprobed for total HA-S6K1 levels. […]
# quiescent cells = settings: cited from earlier work
compound,measurement,setting,value
"NC(=O)c1ncn([C@@H]2O[C@H](CO)[C@@H](O)[C@H]2O)c1N [AICAR, 5-aminoimidazole-4-carboxamide 1-β-D-ribofuranoside]",tuberin mobility on SDS-PAGE,"tuberin; HeLa cells expressing wild-type LKB1, 2 mM AICAR",significant reduction in tuberin mobility
same,tuberin mobility on SDS-PAGE,"tuberin; HeLa cells in the absence of LKB1 expression, AICAR",no effect on tuberin mobility
same,glucocorticoid induced apoptosis,quiescent cells,protects them from glucocorticoid induced apoptosis
